Results reported in patent US5594027A, “Aminocycloalkanobenzodioxoles as beta-3 selective adrenergic agents” (American Cyanamid Company, priority 1995, dated 1997).
Counter-ions that a name gives are not always drawn.

What was measured:
[1] = molecular target: T1, β1-adrenergic receptor (Rattus norvegicus, UniProt P18090); experiment: Heart membrane binding (β1-effect), [125I]iodocyanopindolol; conditions: rat heart membranes, 1 hour
T1 construct: membranes from rat heart; from tissue; host or cells: rat heart membranes
Description: (§1) β-Adrenergic receptors can be divided into β1, β2 and β 3-subtypes. Activation of β1 -receptors invokes increases in heart rate while activation of β2 -receptors stimulates glycogen breakdown in muscle and thereby prevents glycogen synthesis. Activation of β3 -receptors stimulates lipolysis (the breakdown of adipose tissue triglycerides to glycerol and free fatty acids), and thereby promotes the loss of fat mass. Ccmpounds that stimulate β3 -receptors will have antiobesity activity. In addition, they have hypoglycemic or anti-diabetic activity, but the mechanism of this effect is unknown. A compound that selectively stimulates β3 -receptors, i.e. has little or no β1 or β2 -activity, will have the desired anti-diabetic and/or anti-obesity activity, but without the undesired effects of increased heart rate (β1 -effect) or muscle tremor (β2 -effect).
(§2) Selectivity of a compound is determined using the following procedures.
Binding assays for β1 -effect are carried out by the use of membranes from rat heart, and β2 -effect by the use of membranes from rat lung by the method described in Neve, et al., J. Pharmacol. Exp. Ther., 1985, 235, 657-664 with the following exceptions:
1. the incubation volume is 0.5 ml,
2. the incubation time is 1 hour,
3. the radioligand is [^125 I]iodocyanopindolol,
4. (-)-isoproterenol (50 μM) is used to define specific binding, and
5. the filters are washed at 4° C.

[2] = molecular target: T2, β3-adrenergic receptor (Rattus norvegicus, UniProt P26255); experiment: Stimulation of adipocyte lipolysis (β3-effect), glycerol generated; assay type: cell-based; conditions: rat epididymal adipocytes, 30 min at 37° C.; concentration giving 50% of the compound's own maximum rate of lipolysis; read-out: Lipolysis (beta3)(EC50 nM)
T2 construct: Rat epididymal fat pads are excised and placed in 0.9% saline; from tissue; host or cells: adipocytes isolated by collagenase from rat epididymal fat pads
Description: as §1, §2
The β3 -effect of the compounds is determined by their ability to stimulate adipocyte lipolysis. Rat epididymal fat pads are excised and placed in 0.9% saline. Four grams of tissue is transferred to a flask with 20 ml of aerated Krebs-Henseleit bicarbonate (KHB) buffer containing 3% fatty acid-free bovine serum albumin to which 75 mg of crude bacterial collagenase (Worthington) has been added. The tissue is incubated for about 45 minutes at 37° C. with gentle shaking. The cells are then washed three times with two volumes of KHB buffer, filtered through two layers of gauze, and brought to a final volume of 80 ml with KHB buffer. One ml aliquots of the cell suspension is added to plastic test tubes containing the appropriate additions of vehicle or compound. The cells are gassed for 1 minute with 95%O2 -5%CO2, capped, and incubated at 37° C. with continuous shaking for a total of 30 minutes. The reaction is stopped by adding 0.1 ml of 30% perchloric acid and 0.1 ml of chloroform. After centrifugation, 0.5 ml of supernatant is transferred to another test tube and neutralized with 0.04 ml of 3M K2 CO3 -0.5M triethanolamine. The amount of glycerol generated from the hydrolysis of endogenous triglycerides is determined in a coupled-enzyme spectrophotometric assay. One-tenth milliliter of the neutralized extract is added to a test tube that contains 0.91 ml of assay mixture comprised of the following: 0.84M glycine, 0.42M hydrazine sulfate, 4.2 mM EDTA, 0.9 mM β-NAD, 9.9 mM MgCl2, 1 mM ATP, 17 U of glycerophosphate dehydrogenase, and 4.3 U of glycerokinase. The test tubes are incubated for 40 minutes at 37° C. with constant shaking. The amount of NADH generated, which is proportional to the amount of glycerol, is determined by the increase in absorbance at 340 nm. […]

T2 sequence (P26255 whole entry): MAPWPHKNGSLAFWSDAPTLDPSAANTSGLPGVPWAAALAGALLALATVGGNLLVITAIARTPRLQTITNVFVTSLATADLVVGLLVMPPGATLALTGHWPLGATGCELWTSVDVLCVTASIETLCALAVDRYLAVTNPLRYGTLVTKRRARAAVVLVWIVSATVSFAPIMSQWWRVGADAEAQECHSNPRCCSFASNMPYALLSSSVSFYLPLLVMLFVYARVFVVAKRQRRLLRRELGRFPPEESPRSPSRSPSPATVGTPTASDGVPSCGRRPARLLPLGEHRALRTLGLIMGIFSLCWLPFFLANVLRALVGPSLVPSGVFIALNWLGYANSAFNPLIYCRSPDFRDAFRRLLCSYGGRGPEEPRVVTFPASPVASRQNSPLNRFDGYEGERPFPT
T1 sequence (P18090 whole entry): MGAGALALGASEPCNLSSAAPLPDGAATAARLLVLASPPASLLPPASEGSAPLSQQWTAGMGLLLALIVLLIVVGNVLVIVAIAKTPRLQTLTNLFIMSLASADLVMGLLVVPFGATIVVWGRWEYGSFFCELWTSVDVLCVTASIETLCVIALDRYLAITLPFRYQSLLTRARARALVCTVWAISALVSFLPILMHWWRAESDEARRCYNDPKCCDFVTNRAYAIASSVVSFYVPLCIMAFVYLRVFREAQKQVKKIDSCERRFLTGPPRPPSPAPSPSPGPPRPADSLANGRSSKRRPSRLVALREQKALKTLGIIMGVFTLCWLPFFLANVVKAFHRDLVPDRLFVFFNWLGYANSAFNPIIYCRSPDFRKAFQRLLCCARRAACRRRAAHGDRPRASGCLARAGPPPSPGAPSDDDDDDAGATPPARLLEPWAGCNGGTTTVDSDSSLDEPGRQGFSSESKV

| IC50 [1] | EC50 [2] | Compound |
| --- | --- | --- |
| > 1000 nM | 2590 nM | O=C(O)C1(C(=O)O)Oc2ccc3c(c2O1)C[C@@H](NC[C@H](O)c1cccc(Cl)c1)C3 [Example 3, [R-(R*,R* or R*,S*)]7-[[2-(3-Chlorophenyl)-2-hydroxyethyl]amino]-7,8-dihydro-6H-indeno[4,5-d]-1,3-dioxole-2,2-dicarboxylic acid disodium salt] |
| > 1000 nM | 4000 nM | O=C(O)C1(C(=O)O)Oc2cc3c(cc2O1)CC(NCC(O)c1cccc(Cl)c1)CC3 (stereo not drawn) [Example 7, (R*,R*), and (R*,S*)-6-[[2-(3-Chlorophenyl)-2-hydroxyethyl]amino]-5,6,7,8-tetrahydronaphtho[2,3-d]-1,3-dioxole-2,3-dicarboxylic acid disodium salt] |
| > 1000 nM | 100 nM | O=C(O)C1(C(=O)O)Oc2cc3c(cc2O1)CC(NC[C@H](O)c1cccc(Cl)c1)C3 [Example 5, (R)-7-[[2-(3-Chlorophenyl)-2-hydroxyethyl]amino]7,8-dihydro-6H-indeno[5,6-d]-1,3-dioxole-2,2-dicarboxylic acid disodium salt] |
| > 1000 nM | 14.6 nM | O=C(O)C1(C(=O)O)Oc2ccc3c(c2O1)C[C@H](NC[C@H](O)c1cccc(Cl)c1)C3 [Example 4, [R-(R*,R* or R*,S*)]-7-[[2-(3-Chlorophenyl)-2-hydroxyethyl]amino]-7,8-dihydro-6H-indeno[4,5-d]-1,3-dioxole-2,2-dicarboxylic acid disodium salt] |
